Read-outs that look alike come from different tables or passages of the source.
Test system: human rhabdomyosarcoma RH-30
Format: in vivo
Conditions: for Average body weight change in % per mouse at nadir / Drug death (Day of death) / Regressions Complete / Regressions Partial / Tumor free survivors at day 120 / day of nadir / ΔT/ΔC in % (day 27) / Biological interpretation: 18
Protocol: This efficacy may be quantified, for example, as changes in tumor volume for each treated (T) and control (C) group, which are calculated for each animal and each day by subtracting the tumor volume on the day of first treatment (staging day) from the tumor volume on the specified observation day. This allows calculating the tumor growth inhibition: ΔT/ΔC=(median delta T/median delta C)×100. Individual tumor volume changes from baseline are thereafter analyzed by a non-parametric two-way ANOVA-TYPE (with factors: group and repeated days) followed by a post-hoc contrasts analysis, with Bonferroni-Holm adjustment for multiplicity, comparing all treated groups to the control group. […] A probability less than 5% (p<0.05) was considered as significant.
Based on the National Cancer Institute (NCl) standards, a ΔT/ΔC≦40% is the minimal level required to declare activity.
The tumor doubling time (in days; Td) was estimated from the plot of the log linear growth of the control group tumors in exponential growth (100 to 1000 mm^3 range) [T. H. Corbett et al., Cancer, 40: 2660-2680 (1977); F. M. Schabel et al., Cancer Drug Development, Part B, Methods in Cancer Research, 17: 3-51, New York, Academic Press Inc. (1979)].
This efficacy may also be quantified by the number of tumor regressions observed after therapy. Individual mice reporting a tumor volume ≦50% of the Day 0 measurement for two consecutive measurements over a seven day period were considered partial responders (PR). Individual mice lacking palpable tumors (<4×4 mm^2 for two consecutive measurements over a seven day period) were classified as complete responders (CR); a CR that persisted until study completion was considered a tumor-free survivor (TFS).
The animals subjected to the experiment are subcutaneously grafted unilaterally with approximately 30 mg of a tumor fragment on day 0. The animals are implanted with a human tumor xenografted in immunocompromized mice. Several days post tumor implantation, mice are randomized according to their body weight to the different groups of treatments and controls. The animals are observed every day. […] The groups are then weighed once or twice a week until the end of the trial.
The tumors are measured 1 to 5 times a week, depending on the tumor doubling time, until the tumor reaches approximately 1,000 mm^3, or until the animal dies (if this occurs before the tumor reaches 1,000 mm^3). The animals are necropsied immediately after euthanasia or death.
The selected tumor model was a human rhabdomyosarcoma RH-30, xenografted in SCID mice [Douglass E C, et al. Cytogenet Cell Genet. 1987; 45(3-4):14855.].
Treatment solutions were prepared first by mixing 1 volume of ethanolic stock solution and 1 volume of polysorbate 80, then by adding 18 volumes of glucose 5% in water.

[1] = 3.5 mg/kg per injection (total 7.0) IV days 14
[2] = 5.6 mg/kg per injection (total 11.2) IV days 14
[3] = 5.6 mg/kg per injection (total 11.2) IV days 14, listed as CABAZITAXEL
[4] = 9.0 mg/kg per injection (total 18) IV days 14
[5] = 14.5 mg/kg per injection (total 29) IV days 14
[6] = 14.5 mg/kg per injection (total 29) IV days 14, listed as CABAZITAXEL

SMILES: CO[C@H]1C(=O)[C@]2(C)[C@@H](OC)C[C@H]3OC[C@@]3(OC(C)=O)[C@H]2[C@H](OC(=O)c2ccccc2)[C@]2(O)C[C@H](OC(=O)[C@H](O)[C@@H](NC(=O)OC(C)(C)C)c3ccccc3)C(C)=C1C2(C)C [Cabazitaxel, 4α-acetoxy-2α-benzoyloxy-5β,20-epoxy-1β-hydroxy-7β,10β-dimethoxy-9-oxo-11-taxen-13α-yl (2R,3S)-3-tert-butoxycarbonyl-amino-2-hydroxy-3-phenylpropionate]
- Average body weight change in % per mouse at nadir [1]: −10.1%
- Drug death (Day of death) [1]: 0/6
- Regressions Complete [1]: 0/6
- Regressions Partial [1]: 0/6
- Tumor free survivors at day 120 [1]: 0/6
- day of nadir [1]: (24) day
- ΔT/ΔC in % (day 27) [1]: 24%
- Biological interpretation (3.5 mg/kg per injection (total 7.0) IV days 14, listed as CABAZITAXEL): Active
- Biological interpretation (3.5 mg/kg per injection (total 7.0) IV days 14, listed as cabazitaxel): active
- Tumor volume changes from baseline: Median (nMad) (3.5 mg/kg, day 18): 307 (35.6)
- Tumor volume changes from baseline: Median (nMad) (3.5 mg/kg, day 22): 418 (258)
- Tumor volume changes from baseline: Median (nMad) (3.5 mg/kg, day 29): 356.5
- Average body weight change in % per mouse at nadir [2]: −15.3%
- Drug death (Day of death) [2]: 0/6
- Regressions Complete [2]: 2/6
- Regressions Partial [2]: 5/6
- Tumor free survivors at day 120 [2]: 0/6
- day of nadir [2]: (28) day
- Biological interpretation [3]: Highly
- ΔT/ΔC in % (day 27) [3]: 0%
- Biological interpretation (5.6 mg/kg per injection (total 11.2) IV days 14, listed as cabazitaxel): highly active
- Tumor volume changes from baseline: Median (nMad) (5.6 mg/kg, day 18): 164 (30.4)
- Tumor volume changes from baseline: Median (nMad) (5.6 mg/kg, day 19): 203 (80.1)
- Tumor volume changes from baseline: Median (nMad) (5.6 mg/kg, day 20): 302.5
- Tumor volume changes from baseline: Median (nMad) (5.6 mg/kg, day 22): 192.5
- Tumor volume changes from baseline: Median (nMad) (5.6 mg/kg, day 27): 0 (130.5)
- Tumor volume changes from baseline: Median (nMad) (5.6 mg/kg, day 29): 106 (147.5)
- Tumor volume changes from baseline: Median (nMad) (5.6 mg/kg, day 33): −85 (117.1)
- Tumor volume changes from baseline: Median (nMad) (5.6 mg/kg, day 39): −139 (113.4)
- Tumor volume changes from baseline: Median (nMad) (5.6 mg/kg, day 41): −157 (113.4)
- Tumor volume changes from baseline: Median (nMad) (5.6 mg/kg, day 43): −104.5
- Tumor volume changes from baseline: Median (nMad) (5.6 mg/kg, day 35): −120 (98.6)
- Average body weight change in % per mouse at nadir [4]: −8.0%
- Biological interpretation [4]: very active
- Drug death (Day of death) [4]: 0/6
- Regressions Complete [4]: 6/6
- Regressions Partial [4]: 6/6
- Tumor free survivors at day 120 [4]: 5/6
- day of nadir [4]: (25) day
- ΔT/ΔC in % (day 27) [4]: 7%
- Biological interpretation (9.0 mg/kg per injection (total 18) IV days 14, listed as CABAZITAXEL): Very
- Tumor volume changes from baseline: Median (nMad) (9 mg/kg, day 18): 138.5
- Tumor volume changes from baseline: Median (nMad) (9 mg/kg, day 29): 62.5 (91.9)
- Tumor volume changes from baseline: Median (nMad) (9 mg/kg, day 33): −129 (142.3)
- Tumor volume changes from baseline: Median (nMad) (9 mg/kg, day 39): −189.5
- Tumor volume changes from baseline: Median (nMad) (9 mg/kg, day 41): −189.5
- Tumor volume changes from baseline: Median (nMad) (9 mg/kg, day 43): −189.5
- Tumor volume changes from baseline: Median (nMad) (9 mg/kg, day 35): −180 (94.9)
- Average body weight change in % per mouse at nadir [5]: −15.0%
- Drug death (Day of death) [5]: 0/6
- Regressions Complete [5]: 6/6
- Regressions Partial [5]: 6/6
- Tumor free survivors at day 120 [5]: 6/6
- day of nadir [5]: (24) day
- Biological interpretation [6]: Highly
- ΔT/ΔC in % (day 27) [6]: <0%
- Biological interpretation (14.5 mg/kg per injection (total 29) IV days 14, listed as cabazitaxel): highly active
- Tumor volume changes from baseline: Median (nMad) (14.5 mg/kg, day 29): −107 (150.5)
- Tumor volume changes from baseline: Median (nMad) (14.5 mg/kg, day 33): −180 (66)
- Tumor volume changes from baseline: Median (nMad) (14.5 mg/kg, day 46): −194 (74.1)
- Tumor volume changes from baseline: Median (nMad) (14.5 mg/kg, day 50): −194 (74.1)
- Tumor volume changes from baseline: Median (nMad) (14.5 mg/kg, day 35): −194 (74.1)
- Tumor volume changes from baseline: Median (nMad) (14.5 mg/kg, day 39): −194 (74.1)
- Tumor volume changes from baseline: Median (nMad) (14.5 mg/kg, day 41): −194 (74.1)
- Tumor volume changes from baseline: Median (nMad) (14.5 mg/kg, day 43): −194 (74.1)
- antitumor activity compared with docetaxel (conclusion of example 1): more active than docetaxel
